Assays:
[1] = target: Aldo-keto reductase family 1 member B1 (Rattus norvegicus, UniProt P07943); test: biochemical; assay type: tissue-based, Lens of camera-type eye;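 note: inhibition of aldose reductase enzyme activity, measured with DL-glyceraldehyde as the substrate; in other assays of this panel Not Active means under 50% inhibition at 10 µM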
Cannabinoid receptor 1 = Cannabinoid receptor 1 (Homo sapiens, UniProt P21554); assay type: cell membranes, Chem-1, Membrane; conditions: chem-1; note: in other assays of this panel Not Active means under 50% inhibition at 10 µM
Cannabinoid receptor 1, sequence (P21554 whole entry): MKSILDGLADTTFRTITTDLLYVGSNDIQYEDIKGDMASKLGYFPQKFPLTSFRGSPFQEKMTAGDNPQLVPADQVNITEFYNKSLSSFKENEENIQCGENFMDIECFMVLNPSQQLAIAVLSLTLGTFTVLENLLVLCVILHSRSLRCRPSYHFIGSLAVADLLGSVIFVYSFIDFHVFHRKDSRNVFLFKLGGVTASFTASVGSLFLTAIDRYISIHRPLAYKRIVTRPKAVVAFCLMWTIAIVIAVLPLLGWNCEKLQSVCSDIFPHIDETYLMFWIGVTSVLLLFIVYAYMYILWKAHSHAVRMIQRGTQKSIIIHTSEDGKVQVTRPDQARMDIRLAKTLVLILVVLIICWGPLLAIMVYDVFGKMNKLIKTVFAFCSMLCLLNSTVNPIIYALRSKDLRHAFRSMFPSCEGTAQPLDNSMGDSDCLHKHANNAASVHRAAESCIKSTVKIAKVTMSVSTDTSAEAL

[2] = target: T1, C-C chemokine receptor type 4 (Homo sapiens, UniProt P51679); assay type: cell membranes, Membrane; conditions: chem-1; note: in other assays of this panel Not Active means under 50% inhibition at 10 µM
T1 sequence (P51679 whole entry): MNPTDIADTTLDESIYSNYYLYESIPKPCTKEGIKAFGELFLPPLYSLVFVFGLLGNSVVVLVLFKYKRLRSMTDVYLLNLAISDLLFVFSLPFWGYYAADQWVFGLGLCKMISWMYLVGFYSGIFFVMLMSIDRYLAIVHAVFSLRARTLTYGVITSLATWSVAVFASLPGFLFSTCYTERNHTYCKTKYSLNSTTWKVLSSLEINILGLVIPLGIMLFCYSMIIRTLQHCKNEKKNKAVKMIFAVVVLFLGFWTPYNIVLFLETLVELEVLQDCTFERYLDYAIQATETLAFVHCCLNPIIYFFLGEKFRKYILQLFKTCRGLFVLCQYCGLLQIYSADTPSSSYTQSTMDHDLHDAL

[3] = target: C-C chemokine receptor type 5 (Homo sapiens, UniProt P51681); assay type: cell membranes, HEK293, Membrane; conditions: hek293; note: in other assays of this panel Not Active means under 50% inhibition at 10 µM
C-C chemokine receptor type 5, sequence (P51681 whole entry): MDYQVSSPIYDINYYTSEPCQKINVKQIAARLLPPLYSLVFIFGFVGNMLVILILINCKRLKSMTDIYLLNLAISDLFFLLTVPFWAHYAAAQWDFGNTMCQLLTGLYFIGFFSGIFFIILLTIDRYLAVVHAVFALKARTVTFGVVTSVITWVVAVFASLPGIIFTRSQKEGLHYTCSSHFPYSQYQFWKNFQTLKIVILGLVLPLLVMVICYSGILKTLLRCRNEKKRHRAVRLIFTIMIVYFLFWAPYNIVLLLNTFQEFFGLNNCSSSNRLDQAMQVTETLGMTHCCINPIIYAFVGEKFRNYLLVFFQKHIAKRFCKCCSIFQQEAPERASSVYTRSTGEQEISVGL

[4] = DRUGMATRIX: GABAA, Flunitrazepam, Central radioligand binding (ligand: [3H] Flunitrazepam); assay type: cell membranes, Rattus norvegicus, Wistar, Brain, Membrane; conditions: Not Active = under 50% inhibition at 10 µM
[5] = target: T2, Polyunsaturated fatty acid lipoxygenase ALOX15 (Oryctolagus cuniculus, UniProt P12530); test: biochemical; assay type: tissue-based, Reticulocytes
T2 sequence (P12530 whole entry): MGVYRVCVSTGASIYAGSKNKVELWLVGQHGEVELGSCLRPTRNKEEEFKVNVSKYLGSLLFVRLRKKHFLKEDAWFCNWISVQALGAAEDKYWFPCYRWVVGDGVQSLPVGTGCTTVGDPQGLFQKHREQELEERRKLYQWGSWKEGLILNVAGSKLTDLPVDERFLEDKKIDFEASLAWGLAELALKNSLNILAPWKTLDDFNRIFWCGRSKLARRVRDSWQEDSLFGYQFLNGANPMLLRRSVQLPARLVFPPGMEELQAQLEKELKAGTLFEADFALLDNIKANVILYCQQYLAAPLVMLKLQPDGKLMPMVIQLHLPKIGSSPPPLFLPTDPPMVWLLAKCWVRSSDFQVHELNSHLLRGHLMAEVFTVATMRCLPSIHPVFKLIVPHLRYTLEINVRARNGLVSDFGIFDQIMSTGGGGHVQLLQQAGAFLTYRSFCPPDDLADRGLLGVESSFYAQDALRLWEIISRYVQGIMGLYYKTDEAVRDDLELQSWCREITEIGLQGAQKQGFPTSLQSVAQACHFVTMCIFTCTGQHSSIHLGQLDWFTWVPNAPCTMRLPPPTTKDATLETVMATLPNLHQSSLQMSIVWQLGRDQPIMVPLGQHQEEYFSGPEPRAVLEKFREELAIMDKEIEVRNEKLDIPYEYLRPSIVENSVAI

[6] = target: T3, Neuropeptide Y receptor type 1 (Homo sapiens, UniProt P25929); assay type: cell membranes, Membrane; conditions: sk-n-mc; note: in other assays of this panel Not Active means under 50% inhibition at 10 µM
T3 sequence (P25929 whole entry): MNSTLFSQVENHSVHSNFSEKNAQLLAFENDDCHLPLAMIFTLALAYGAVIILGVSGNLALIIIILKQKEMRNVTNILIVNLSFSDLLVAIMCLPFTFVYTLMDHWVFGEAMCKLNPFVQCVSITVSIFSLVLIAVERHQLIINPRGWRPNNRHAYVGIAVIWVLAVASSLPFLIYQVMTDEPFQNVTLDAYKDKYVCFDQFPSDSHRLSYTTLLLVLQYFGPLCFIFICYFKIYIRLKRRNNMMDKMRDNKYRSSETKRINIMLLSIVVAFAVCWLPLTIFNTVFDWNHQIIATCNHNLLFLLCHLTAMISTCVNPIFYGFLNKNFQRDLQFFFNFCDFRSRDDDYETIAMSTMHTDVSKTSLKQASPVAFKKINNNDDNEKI

[7] = target: T4, Neuropeptide Y receptor type 2 (Homo sapiens, UniProt P49146); assay type: cell membranes, Membrane; conditions: kan-ts; note: in other assays of this panel Not Active means under 50% inhibition at 10 µM
T4 sequence (P49146 whole entry): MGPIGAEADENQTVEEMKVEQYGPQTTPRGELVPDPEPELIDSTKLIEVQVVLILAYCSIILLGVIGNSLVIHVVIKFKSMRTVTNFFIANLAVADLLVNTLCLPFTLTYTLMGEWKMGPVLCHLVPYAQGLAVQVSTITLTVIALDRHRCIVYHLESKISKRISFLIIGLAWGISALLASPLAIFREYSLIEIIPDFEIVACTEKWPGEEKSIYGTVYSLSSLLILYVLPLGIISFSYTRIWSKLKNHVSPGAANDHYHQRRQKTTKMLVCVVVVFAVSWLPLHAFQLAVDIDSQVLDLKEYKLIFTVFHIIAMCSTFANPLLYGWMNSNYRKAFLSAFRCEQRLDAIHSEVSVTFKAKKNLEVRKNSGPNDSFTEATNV

Row | Structure (SMILES) | IC50 [1] | IC50 (Cannabinoid receptor 1) | IC50 [2] | IC50 [3] | IC50 [4] | Ki [4] | IC50 ([5]; reticulocytes) | IC50 [6] | IC50 [7] | IC50 ([5]; read-out: IC50) [µM]
1 | O=C(N[C@H](CO)[C@H](O)c1ccc([N+](=O)[O-])cc1)C(Cl)Cl [CHLORAMPHENICOL] | Not Active | Not Active | Not Active | Not Active | Not Active | Not Active | Not Active | Not Active | Not Active | 
2 | ClC(Cl)Cl [CHLOROFORM] | Not Active | Not Active | Not Active | Not Active | Not Active | Not Active | Not Active | Not Active | Not Active | 
3 | C=C1CC[C@H](O)C/C1=C/C=C1\CCC[C@]2(C)[C@@H]([C@H](C)CCCC(C)C)CC[C@@H]12 [CHOLECALCIFEROL] | Not Active | Not Active | Not Active | Not Active | Not Active | Not Active | Not Active | Not Active | Not Active | 
4 | C[N+](C)(C)CCO.[Cl-] [CHOLINE CHLORIDE] | Not Active | Not Active | Not Active | Not Active | Not Active | Not Active | Not Active | Not Active | Not Active | 
5 | CCOC(=O)C(C)(C)Oc1ccc(Cl)cc1 [CLOFIBRATE] | Not Active | Not Active | Not Active | Not Active | Not Active | Not Active | Not Active | Not Active | Not Active | 
6 | CC(=O)OCC(=O)[C@@]1(O)CC[C@H]2[C@@H]3CCC4=CC(=O)CC[C@]4(C)[C@H]3C(=O)C[C@@]21C [CORTISONE ACETATE] | Not Active | Not Active | Not Active | Not Active | Not Active | Not Active | Not Active | Not Active | Not Active | 
7 | O=c1ccc2ccccc2o1 [COUMARIN] | Not Active | Not Active | Not Active | Not Active | Not Active | Not Active | Not Active | Not Active | Not Active | 
8 | C[C@@H]1C[C@@H]([C@H](O)CC2CC(=O)NC(=O)C2)C(=O)[C@@H](C)C1 [CYCLOHEXIMIDE] | Not Active | Not Active | Not Active | Not Active | Not Active | Not Active | Not Active | Not Active | Not Active | 
9 | C/C=C/C[C@@H](C)[C@@H](O)[C@H]1C(=O)N[C@@H](CC)C(=O)N(C)CC(=O)N(C)[C@@H](CC(C)C)C(=O)N[C@@H](C(C)C)C(=O)N(C)[C@@H](CC(C)C)C(=O)N[C@@H](C)C(=O)N[C@H](C)C(=O)N(C)[C@@H](CC(C)C)C(=O)N(C)[C@@H](CC(C)C)C(=O)N(C)[C@@H](C(C)C)C(=O)N1C [CYCLOSPORINE] | Not Active | Not Active | Not Active | Not Active | Not Active | Not Active | Not Active | Not Active | Not Active | 
10 | CN(C)/N=N/c1[nH]cnc1C(N)=O [DACARBAZINE] | Not Active | Not Active | Not Active | Not Active | Not Active | Not Active | Not Active | Not Active | Not Active | 
11 | COc1ccc2c(c1)[C@]13CCCC[C@@H]1[C@H](C2)N(C)CC3 [DEXTROMETHORPHAN] | Not Active | Not Active | Not Active | Not Active | Not Active | Not Active | Not Active | Not Active | Not Active | 
12 | CC(=O)Nc1c(I)c(NC(C)=O)c(I)c(C(=O)O)c1I [DIATRIZOIC ACID] | Not Active | Not Active | Not Active | Not Active | Not Active | Not Active | Not Active | Not Active | Not Active | 
13 | COP(=O)(OC)OC=C(Cl)Cl [DICHLORVOS] | Not Active | Not Active | Not Active | Not Active | Not Active | Not Active | Not Active | Not Active | Not Active | 
14 | O=C(O)Cc1ccccc1Nc1c(Cl)cccc1Cl [DICLOFENAC] | Not Active | Not Active | Not Active | Not Active | Not Active | Not Active | Not Active | Not Active | Not Active | 
15 | C[C@H]1O[C@@H](O[C@H]2[C@@H](O)C[C@H](O[C@H]3[C@@H](O)C[C@H](O[C@H]4CC[C@@]5(C)[C@H](CC[C@@H]6[C@@H]5CC[C@]5(C)[C@@H](C7=CC(=O)OC7)CC[C@]65O)C4)O[C@@H]3C)O[C@@H]2C)C[C@H](O)[C@@H]1O [DIGITOXIN] | Not Active | Not Active | Not Active | Not Active | Not Active | Not Active | Not Active | Not Active | Not Active | 
16 | CCN1CC(CCN2CCOCC2)C(c2ccccc2)(c2ccccc2)C1=O (stereo not given) [DOXAPRAM] | Not Active | Not Active | Not Active | Not Active | Not Active | Not Active | Not Active | Not Active | Not Active | 
17 | Cn1c(=O)c2c(ncn2CC2OCCO2)n(C)c1=O [DOXOFYLLINE] | Not Active | Not Active | Not Active | Not Active | Not Active | Not Active | Not Active | Not Active | Not Active | 
18 | COc1cccc2c1C(=O)c1c(O)c3c(c(O)c1C2=O)C[C@@](O)(C(=O)CO)C[C@@H]3O[C@H]1C[C@H](N)[C@H](O)[C@H](C)O1 [DOXORUBICIN] | Not Active | Not Active | Not Active | Not Active | Not Active | Not Active |  | Not Active | Not Active | 13.6
19 | COc1cccc2c1C(=O)c1c(O)c3c(c(O)c1C2=O)C[C@@](O)(C(=O)CO)C[C@@H]3O[C@H]1C[C@H](N)[C@@H](O)[C@H](C)O1 [EPIRUBICIN] | Not Active | Not Active | Not Active | Not Active | Not Active | Not Active | Not Active | Not Active | Not Active | 
20 | C[C@]12CC[C@@H]3c4ccc(OC(=O)c5ccccc5)cc4CC[C@H]3[C@@H]1CC[C@@H]2O [ESTRADIOL BENZOATE] | Not Active | Not Active | Not Active | Not Active | Not Active | Not Active | Not Active | Not Active | Not Active | 

— ChEMBL document CHEMBL1909046, “DrugMatrix in vitro pharmacology data”
